# Results published in US10494417B2, “Peptide inhibitors of BCR-ABL oligomerization” (University of Utah Research Foundation, priority 2014, dated 2019).
# “Also recorded” adds a separate entry of the source.
# Columns and labels:
# [1] = tested on: CD34+ cells from newly diagnosed CML patients; assay: Colony forming assay of CD34+ cells from newly diagnosed CML patients; assay type: cell-based, human; conditions: day 14 CFU-GM; lentiviral CCmut3 or 2.5 μM imatinib vs EV
# Description: Primary cells were seeded in Methocult H4230 (Stem Cell Technologies) as described previously (Fleischman, A. G., et al. (2011). Blood 118, 6392-6398). Briefly, lentivirus-infected (GFP^+) cells were isolated by FACS and resuspended in RPMI1640. Cells were plated in Methocult H4230 at 1,000 cells/mL supplemented with 1× StemSpan CC100 cytokine mix (StemCell Technologies) with or without TKI as indicated in each experiment. Plates were incubated at 37° C. in a 5% CO2 humidified incubator for 14 days. Colony forming units of granulocyte-macrophage (CFU-GM) were counted on day 14 using an inverted microscope.
# Following selection of transfected cells by cell sorting, methylcellulose colony assays were performed by plating in 0.9% methylcellulose (Stem Cell Technologies; M3234 for Ba/F3 BCR-ABL1 native and mutant lines; M3434 for Ba/F3 parental cells; H4230 for CML patient samples). mCherry-positive Ba/F3 cells (1.1×10^3 cells/plate) or GFP-positive primary CML CD34+ cells (1×10^3 cells/plate) were seeded per dish in duplicate. In the case of CML patient samples, cells were plated in the presence of 1× StemSpan CC100 cytokine cocktail (StemCell Technologies). All cells were plated with or without the indicated TKI in three or more independent experiments. Plates were incubated at 37° C. in a 5% CO2 humidified incubator. Colonies were counted 7-14 days later in an area of 50 μm2 per dish using an inverted microscope.
# [2] = tested on: CML CD34+ cells expressing BCR-ABL1T315I; assay: Colony forming assay of primary CML CD34+ cells expressing BCR-ABL1T315I (samples R1, R2); assay type: cell-based, human; conditions: sample R1 (accelerated phase); lentiviral CCmut3 or 10 nM ponatinib vs EV
# Description: Mononuclear cells (MNCs) were separated from the peripheral blood of patients with newly diagnosed or therapy-resistant CML with a documented T315I mutation, using Ficoll (Nycomed, Oslo, Norway). Isolation of the CD34^+ fraction was done on an autoMACS Pro (Miltenyi Biotech). […] Cells were infected with lentivirus at a multiplicity of infection (MOI) of 5 for each construct at 24 and 48 hours following harvest (fresh cells) or thaw (frozen cells). Cells were sorted on a BD FACSAria cytometer after 72 h, and GFP-positive cells were returned to culture medium for future experiments. All patients gave their informed consent in accordance with the Declaration of Helsinki, and all studies with human specimens were approved by The University of Utah Institutional Review Board (IRB).
# Briefly, lentivirus-infected (GFP^+) cells were isolated by FACS and resuspended in RPMI1640. […] Plates were incubated at 37° C. in a 5% CO2 humidified incubator for 14 days. Colony forming units of granulocyte-macrophage (CFU-GM) were counted on day 14 using an inverted microscope.
# All cells were plated with or without the indicated TKI in three or more independent experiments. Plates were incubated at 37° C. in a 5% CO2 humidified incubator. Colonies were counted 7-14 days later in an area of 50 μm2 per dish using an inverted microscope.
# [3] = Phase III trial for first-line therapy in CML patients, discontinued; cited from earlier work
# [4] = tested on: CML CD34+ cells expressing BCR-ABL1T315I; assay: Liquid culture of primary T315I CML cells; assay type: cell-based, human; conditions: CC^mut3 or increasing concentrations of ponatinib (FIG. 28C)
# Description: Cell proliferation was assessed using the CellTiter 96® AQueous One Solution Cell Proliferation Assay (MTS assay, Promega) according to manufacturer instructions. Briefly, 5,000 viable cells were added to a single well in 96-well plate in 100 μL RPMI1640. Three independent samples were seeded in duplicate for each time point. […] In some experiments, cell proliferation was assessed using a Neubauer chamber and trypan blue dye exclusion.
# K562 cells [5] = assay: Nuclear (DNA) segmentation apoptosis assay in transfected K562 cells; assay type: cell-based, human; conditions: 48 h, vs EGFP control
# Description: CC^mut3 was then tested for its ability to induce apoptosis in K562 cells. Apoptosis was observed using 3 different methods: 1) nuclear segmentation; 2) induction of the effector Caspase-3/7; and 3) 7AAD/Annexin V staining.
# Nuclear segmentation analysis was performed as previously described (16). Briefly, immediately prior to cellular analysis, 2-well live cell chambers were treated for 15 min with poly-L-lysine (Sigma-Aldrich, St. Louis, Mo., USA), to allow cell adhesion in the wells. Forty-eight h following transfection, the transfected K562 cells were transferred to the pretreated 2-well live cell chambers. Cells were incubated for 15 min at 37° C. following the addition of 0.3 μL Hoechst H33342 nuclear stain (Life Technologies, Carlsbad, Calif., USA). Cells were then imaged using an inverted fluorescence microscope (Olympus IX701F, Scientific Instrument Co., Sunnyvale, Calif., USA) equipped with an F-view Monochrome CCD camera. Fields of view were selected based on EGFP fluorescence when viewing using a 40× oil immersion objective. Nuclei from cells that were positively transfected (positive for EGFP fluorescence) were categorized as either healthy (round or kidney-shaped nuclei) or segmented (punctate staining of nuclei), and the percentage of cells with segmented DNA was calculated (n=3 in replicate).
# K562 cells [6] = assay: Colony forming assay of transfected K562 cells; assay type: cell-based, human; conditions: for colony formation (transformative ability), in words: construct delivered as a gene by transfection, vs EGFP (and WT) control
# Description: Both EGFP and EGFP-CC^mut3 were transfected into separate groups of cells on day 0. One day following transfection, 1.0×10^6 cells per treatment group were collected and re-suspended in 1.0 mL of PBS. Through serial dilutions, 1.0×10^3 cells in IMDM (Isocove's modified Dulbecco's media) with 2% FBS were seeded into methylcellulose medium in the absence of cytokines (MethoCult H4230 for K562 cells and MethoCult M3234 for p210 and p210-T315I cells) or in the presence of cytokines (MethoCult GF M3434 for parental Ba/F3 cells). Ponatinib was then added in the correct molar amounts (0, 100 pM, 1 nM, or 10 nM) to the methylcellulose medium. Colonies formed were counted after 7 days of incubation. All reagents were purchased from Stem Cell Technologies, Vancouver, BC, Canada. Assay was run three separate times (n=3) in duplicate.
# (§1) Briefly, K562 or Ba/F3-p210 cells were transfected according to the protocol above. One day following transfection, 1.0×10^6 cells per transfection group were collected and re-suspended in sterile PBS. […] Finally, 1.1 mL of cell/methylcellulose mixture was seeded in duplicate and allowed to grow at 37° C. and 5% CO2 for 7 days. Colony formation was assessed by counting colonies in two 200 μm2 areas on the plate. Experiments were performed once in duplicate (n=1 in duplicate). All kit reagents and media were purchased from Stem Cell Technologies (Vancouver, BC, Canada).
# [7] = tested on: Ba/F3 cells expressing native BCR-ABL1 (Ba/F3-p210); assay: Colony forming assay of transfected Ba/F3-p210 cells; assay type: cell-based, mouse; conditions: cappedHelix2mut3 study, n=1, data not shown
# Description: as §1
# K562 cells [8] = assay: Proliferation/viability of transfected K562 cells (trypan blue exclusion); assay type: cell-based, human; conditions: 72 h following transfection, trypan blue exclusion, vs mCherry control, n=1
# Description: K562 cells, human leukemia Bcr-Abl^+ cells (gifted from Kojo Elenitoba-Johnson, University of Michigan), were grown in RPMI 1640 media supplemented with 10% FBS, 1% penicillin-streptomycin-glutamine, and 0.1% gentamicin (complete medium). […] Transfections were carried out two days following cell passaging. Then, 2.0×10^6 cells were collected and transfected with 6 μg pf pEGFP, pEGFP-CC^mut3, pmCherry, or pmCherry-CC^mut3 according to the Cell Line Nucleofector Kit V protocol, program T-013, using the Amaxa Nucleofector II (Lonza Group, Basel, Switzerland).
# Cell counts were performed using a standard light microscope.
# Two days following cell passaging, 2.0×10^6 cells were collected by centrifugation at 500×g for 10 min for each transfection group. Following cell collection, 6 lig DNA (pEGFP, pEGFP-CC, pEGFP-CCmut3, pEGFP-Helix2WT, pEGFP-Helix2mut3, pmCherry, pmCherry-CCmut3, or pmCherry-CappedHelix2mut3) was transfected into cells according to the Cell Line Nucleofector® Kit V protocol (program T-013) using the Amaxa Nucleofector II (Lonza Group, Basel, Switzerland). Following transfection, the DNA/cell mixture was added to 10 mL Complete RPMI 1640 media and allowed to incubate at 37° C. for 24, 48, or 72 h until analysis, depending on the assay.
# (§2) Forty-eight or 72 h following transfection, 100 μL of treated K562 or Ba/F3-p210 cells was mixed with 100 μL trypan blue solution (Life Technologies). The numbers of viable cells (those impermeable to the trypan blue dye) from four different quadrants in an INCYTO™ C-CHIP™ Neubauer hemacytometer (VWR International, Radnor, Pa., USA) were counted using a standard light microscope. Quadrant counts were then averaged to obtain the number of viable cells per mL. For experiments using the Helix2mut3 construct, counts were performed on one aliquot per transfection (n=3 in replicate). In experiments involving the CappedHelix2mut3 construct, counts were performed three times using separate 100 pt aliquots from one transfection (n=1 in triplicate).
# Ba/F3-P210 cells = assay: Viability of transfected Ba/F3-p210 cells (trypan blue exclusion); assay type: cell-based, mouse; conditions: 72 h following transfection, vs mCherry control, n=1
# Description: Two days following cell passaging, 3.0×10^6 cells were collected by centrifugation at 750×g for 10 min for each transfection group. Following collection, 4 μg DNA was transfected into cells according to the Cell Line Nucleofector® Kit V protocol (program X-001) using the Amaxa Nuelcofector II. Following nucleofection, the DNA/cell mixture was added to 500 μL plain RPMI and incubated for 20 min. After incubation, the 500 μL cell/DNA/RPMI mixture was added to complete RPMI 1640 media and allowed to incubate at 37° C. for 72 h until analysis.
# as §2
compound,measurement,setting,value
"Cc1ccc(NC(=O)c2ccc(CN3CCN(C)CC3)cc2)cc1Nc1nccc(-c2cccnc2)n1 [imatinib, reference compound]","colony formation, in words",[1],equally effective in reducing colony number
"Cc1ccc(C(=O)Nc2ccc(CN3CCN(C)CC3)c(C(F)(F)F)c2)cc1C#Cc1cnc2cccnn12 [ponatinib, 3-[2-(imidazo[1,2-b]pyridazin-3-yl)ethynyl]-4-methyl-N-{4-[(4-methylpi-perazin-1-yl)methyl]-3-(trifluoromethyl)phenyl}benzamide, reference compound]",reduction of colony formation,[2],47%
same,patients with serious side effects,[3],~12%
same,effect in liquid culture,[4],no effect
"Helix2mut3: residues 23-72: α-helix2 of BCR-ABL CC domain plus five flanking residues each end, with CCmut3 mutations (MELRSVGDIEQELERAEARIRRDEQRVNQERFRMIYLETLLAKEKKSYDR)",induction of apoptosis (nuclear/DNA segmentation),K562 cells [5],outperformed negative control EGFP; also recorded: statistically significant increase in apoptosis; also recorded: apoptosis was induced to a similar extent between both CCmut3 and Helix2mut3; also recorded: significantly induced apoptosis
same,"colony formation, of EGFP control","K562 cells [6]; 7 days after seeding, normalized to EGFP control, n=1 in duplicate",approximately 67%
same,"colony formation (transformative ability), in words",K562 cells [6],"outperformed negative control EGFP; also recorded: showed inhibitory activity; also recorded: prevented outgrowth of colonies to a greater extent than the EGFP control, however, not as well as the full length CCmut3"
cappedHelix2mut3: residues 27-68: α-helix2 of BCR-ABL CC domain with capping residues S27 and G68 and CCmut3 mutations (SVGDIEQELERAEARIRRDEQRVNQERFRMIYLETLLAKEKG),colony formation,[7],same pattern as in the cell proliferation studies
same,proliferation/viability of K562 cells,K562 cells [8],failed to out-perform the negative control; also recorded: did not display inhibition of cell proliferation; also recorded: no evidence of BCR-ABL inhibition
same,colony formation,"K562 cells [6]; cappedHelix2mut3 study, n=1, data not shown",failed to out-perform the negative control; also recorded: same pattern as in the cell proliferation studies
same,proliferation/viability of Ba/F3-p210 cells,Ba/F3-P210 cells,replicated to a similar extent; also recorded: no evidence of BCR-ABL inhibition
"helix2 domain: helix2 domain (amino acids 28-67) with the CC^mut3 mutations, delivered as a gene via nucleofection (MELRSVGDIEQELERAEARIRRDEQRVNQERFRMIYLETLLAKEKKSYDR)","colony formation (transformative ability), in words",K562 cells [6],sufficient to inhibit colony formation in K562 cells
